Data published in ChEMBL document CHEMBL3608221, “Regulating the master regulator: Controlling heat shock factor 1 as a chemotherapy approach” (Bioorg Med Chem Lett, 2015).

Tests used:
[1] = biological target: T1, Heat shock factor protein 1 (Homo sapiens) (UniProt Q00613); test: Inhibition of HSF1 in human HCT116 cells assessed as potentiation of SM253-induced reduction in HSF1 at 5 uM relative to SM253 alone; format: cell-based; set-up: scale not given: the % may be the effect or the level left; settings: HCT-116
T1 sequence (whole entry): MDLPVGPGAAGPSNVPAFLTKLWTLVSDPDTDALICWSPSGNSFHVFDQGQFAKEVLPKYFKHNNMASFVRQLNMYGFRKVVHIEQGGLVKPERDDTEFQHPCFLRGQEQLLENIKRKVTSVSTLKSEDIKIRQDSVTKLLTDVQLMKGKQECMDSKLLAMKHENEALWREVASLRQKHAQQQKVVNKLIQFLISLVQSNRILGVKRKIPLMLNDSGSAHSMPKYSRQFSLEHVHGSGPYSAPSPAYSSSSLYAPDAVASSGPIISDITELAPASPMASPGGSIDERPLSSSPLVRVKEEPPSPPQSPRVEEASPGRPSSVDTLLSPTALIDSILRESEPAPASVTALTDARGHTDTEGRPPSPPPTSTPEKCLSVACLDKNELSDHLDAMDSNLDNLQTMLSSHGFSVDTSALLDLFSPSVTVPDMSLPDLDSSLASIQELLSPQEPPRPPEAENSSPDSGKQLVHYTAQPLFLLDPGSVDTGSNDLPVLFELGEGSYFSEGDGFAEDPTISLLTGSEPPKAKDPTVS

[2] = biological target: T1, Heat shock factor protein 1 (Homo sapiens); test: Inhibition of HSF1 in human MIAPaCa2 cells assessed as potentiation of SM253-induced increase in cell death at 50 uM relative to SM253 alone; format: cell-based; set-up: scale not given: the % may be the effect or the level left; settings: MIA PaCa-2
[3] = biological target: T1, Heat shock factor protein 1 (Homo sapiens); test: Inhibition of HSF1 in human HCT116 cells assessed as potentiation of SM258-induced increase in cell death at 15 uM relative to SM258 alone; format: cell-based; set-up: scale not given: the % may be the effect or the level left; settings: HCT-116
[4] = biological target: T1, Heat shock factor protein 1 (Homo sapiens); test: Inhibition of HSF1 in human HeLa cells assessed as potentiation of radicicol-induced increase in cell death at 2 uM relative to radicicol alone; format: cell-based; set-up: scale not given: the % may be the effect or the level left
[5] = biological target: T1, Heat shock factor protein 1 (Homo sapiens); test: Inhibition of HSF1 in human HCT116 cells assessed as potentiation of SM258-induced reduction in HSF1 at 15 uM relative to SM258 alone; format: cell-based; set-up: scale not given: the % may be the effect or the level left; settings: HCT-116
[6] = biological target: T1, Heat shock factor protein 1 (Homo sapiens); test: Inhibition of HSF1 in human HCT116 cells assessed as potentiation of SM253-induced increase in cell death at 50 uM relative to SM253 alone; format: cell-based; set-up: scale not given: the % may be the effect or the level left; settings: HCT-116
[7] = biological target: T1, Heat shock factor protein 1 (Homo sapiens); test: Inhibition of HSF1 in human HCT116 cells assessed as potentiation of SM253-induced increase in cell death at 5 uM relative to SM253 alone; format: cell-based; set-up: scale not given: the % may be the effect or the level left; settings: HCT-116
[8] = biological target: T1, Heat shock factor protein 1 (Homo sapiens); test: Inhibition of HSF1 in human HCT116 cells assessed as potentiation of SM258-induced increase in cell death at 30 uM relative to SM258 alone; format: cell-based; set-up: scale not given: the % may be the effect or the level left; settings: HCT-116
[9] = biological target: T1, Heat shock factor protein 1 (Homo sapiens); test: Inhibition of HSF1 in human MIAPaCa2 cells assessed as potentiation of SM253-induced reduction in HSF1 at 50 uM relative to SM253 alone; format: cell-based; set-up: scale not given: the % may be the effect or the level left; settings: MIA PaCa-2
[10] = biological target: T1, Heat shock factor protein 1 (Homo sapiens); test: Inhibition of HSF1 in human HCT116 cells assessed as potentiation of SM253-induced reduction in HSF1 at 50 uM relative to SM253 alone; format: cell-based; set-up: scale not given: the % may be the effect or the level left; settings: HCT-116
[11] = biological target: T1, Heat shock factor protein 1 (Homo sapiens); test: Inhibition of HSF1 in human HCT116 cells assessed as potentiation of SM258-induced reduction in HSF1 at 30 uM relative to SM258 alone; format: cell-based; set-up: scale not given: the % may be the effect or the level left; settings: HCT-116
HCT-116 = test: Antitumor activity against human HCT116 cells xenografted in mouse assessed as reduction in tumor size at 50 mg/kg; format: functional
[12] = biological target: T2, Heat shock factor protein 1 (Homo sapiens, UniProt Q00613); test: Inhibition of HSF1 (unknown origin) assessed as reduction in HSF1--mediated HSP transcription
T2 sequence (Q00613 whole entry): T1 sequence (whole entry)

[13] = biological target: T1, Heat shock factor protein 1 (Homo sapiens); test: Inhibition of HSF1 in human H929 cells assessed as potentiation of 17-AAG-induced icrease in cell death at 100 nM relative to 17-AAG alone; format: cell-based; set-up: scale not given: the % may be the effect or the level left
[14] = biological target: T1, Heat shock factor protein 1 (Homo sapiens); test: Inhibition of HSF1 in human INA63 cells assessed as potentiation of NVP-AUY-922-induced reduction in cell proliferation at 5 nM relative to NVP-AUY-922 alone; format: cell-based; set-up: scale not given: the % may be the effect or the level left
[15] = biological target: T1, Heat shock factor protein 1 (Homo sapiens); test: Inhibition of HSF1 in human HeLa cells assessed as potentiation of radicicol and heat-induced increase in cell death at 60 nM relative to radicicol and heat alone; format: cell-based; set-up: scale not given: the % may be the effect or the level left
[16] = biological target: T1, Heat shock factor protein 1 (Homo sapiens); test: Inhibition of HSF1 in human MM.1S cells assessed as potentiation of NVP-AUY-922-induced reduction in cell proliferation at 6 nM relative to NVP-AUY-922 alone; format: cell-based; set-up: scale not given: the % may be the effect or the level left
A2058 [17] = test: Cytotoxicity against human A2058 cells in absence of HSF1 knock down treatment; format: functional, cell-based
A-375 [18] = test: Cytotoxicity against human A375 cells in presence of HSF1 knock down treatment; format: functional, cell-based
A-375 [19] = test: Cytotoxicity against human A375 cells in absence of HSF1 knock down treatment; format: functional, cell-based
A2058 [20] = test: Cytotoxicity against human A2058 cells in presence of HSF1 knock down treatment; format: functional, cell-based
[21] = biological target: T1, Heat shock factor protein 1 (Homo sapiens); test: Inhibition of HSF1 in human HL60 cells assessed as potentiation of 17-AAG-induced increase in apoptosis at 400 uM relative to 17-AAG alone; format: cell-based; set-up: scale not given: the % may be the effect or the level left; settings: HL-60
[22] = biological target: T1, Heat shock factor protein 1 (Homo sapiens); test: Inhibition of HSF1 in human ASB244 cells assessed as potentiation of geldanamycin-induced reduction in cell proliferation at 20 uM relative to geldanamycin alone; format: cell-based; set-up: scale not given: the % may be the effect or the level left
[23] = biological target: T1, Heat shock factor protein 1 (Homo sapiens); test: Inhibition of HSF1 in human ASB244 cells assessed as potentiation of geldanamycin-induced reduction in cell migration at 10 uM relative to geldanamycin alone; format: cell-based; set-up: scale not given: the % may be the effect or the level left
[24] = biological target: T1, Heat shock factor protein 1 (Homo sapiens); test: Inhibition of HSF1 in human ASB145 cells assessed as potentiation of geldanamycin-induced reduction in cell proliferation at 20 uM relative to geldanamycin alone; format: cell-based; set-up: scale not given: the % may be the effect or the level left
[25] = biological target: T1, Heat shock factor protein 1 (Homo sapiens); test: Inhibition of HSF1 in human HL60 cells assessed as potentiation of 17-AAG-induced reduction in cologenicity at 400 uM relative to 17-AAG alone; format: cell-based; set-up: scale not given: the % may be the effect or the level left; settings: HL-60
[26] = Induction of cell death in human MIAPaCa2 cells at 50 uM; format: functional, MIA PaCa-2
[27] = Induction of cell death in human PANC1 cells at 50 uM; format: functional, PANC-1
[28] = Antitumor activity against human MIAPaCa2 cells xenografted in mouse assessed as reduction in tumor volume at 150 mg/kg; format: functional, MIA PaCa-2; set-up: scale not given: the % may be the effect or the level left

## CCC1CN2CCc3cc(OC)c(OC)cc3C2CC1CC1NCCc2ccccc21 (centres undefined)
[1]
  Activity: 30%
[2]
  Activity: 64%
[3]
  Activity: 77%
[4]
  Activity: 30%
[5]
  Activity: 50%
[6]
  Activity: 77%
[7]
  Activity: 50%
[8]
  Activity: 95%
[9]
  Activity: 55%
[10]
  Activity: 60%
[11]
  Activity: > 99%

## CNc1ccc([N+](=O)[O-])c(Nc2ccc3[nH]ncc3c2)n1
HCT-116
  inhibition in vivo at 50 mg/kg: 50%
[12]
  IC50: 1200 nM

## CC(C)[C@]12O[C@H]1[C@@H]1O[C@]13[C@]1(O[C@H]1C[C@H]1C4=C(CC[C@@]13C)C(=O)OC4)[C@@H]2O
[13]
  Activity: 40%
[14]
  Activity: 45%
[15]
  Activity: 45%
[16]
  Activity: 35%

## COc1cccc(-c2cc(F)ccc2[C@H]2Cc3nc(N)nc(C)c3C(=O)N2)n1
A2058 [17]
  IC50: 12.7 nM
A-375 [18]
  IC50: 6 nM
A-375 [19]
  IC50: 19 nM
A2058 [20]
  IC50: 5.2 nM

## O=CN1CC/C(=C/c2ccc3c(c2)OCO3)C1=O
[21]
  Activity: 20%
[22]
  Activity: 52%
[23]
  Activity: 75%
[24]
  Activity: 72%
[25]
  Activity: 99%

## CCCCCCCc1ccc(C#Cc2nc(C(N)=O)n([C@@H]3O[C@H](CO)[C@@H](O)[C@H]3O)n2)cc1
[26]
  Activity: 90%
[27]
  Activity: 80%
[28]
  Activity: 60%
